For 14 molecules, IC50 results are on record in patent US20240279241A1, “PYRIDO[4,3-D]PYRIMIDINE COMPOUNDS CAPABLE OF INHIBITING KRAS MUTANT PROTEINS” (Redx Pharma PLC, priority 2021, published 2024).

Molecules are shown by their SMILES.

What all share (assay type): biochemical
In one assay the target is T1, KRAS G12D (Homo sapiens, UniProt P01116, G12D).
T1 construct: Recombinant human RAS protein (2 nM)
Nature of the assay: HTRF nucleotide exchange assay (NEA), KRAS G12D. To be noted: recombinant human KRAS G12D aa1-188, 2 nM; lowest class = % inhibition at 10 μM. The gist of the method:
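Compound binding to KRAS G12D was measured by HTRF nucleotide exchange. Recombinant human KRAS G12D (aa1-188, N-terminal 6×His-tag, 2 nM) and 2 nM Europium anti-6×His antibody were combined with compound in 5 uL assay buffer in 384-well plates for 60 minutes at room temperature, then 5 ul of 200 nM EDA-GTP-DY647P1 was added for 30 minutes before time-resolved fluorescence reading.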

A further assay has as its target T2, KRAS G12A (Homo sapiens, UniProt P01116, G12A).
T2 construct: 4 nM KRAS; aa1-188 containing the G12V, G12C, G12A or G12S amino acid substitution
Nature of the assay: HTRF nucleotide exchange assay (NEA), KRAS G12A. Here is the method: (§1) The capacity of compounds to bind KRAS G12D, other KRAS mutants and wildtype RAS isoforms was quantified using a HTRF nucleotide exchange assay. Recombinant human RAS protein (2 nM; aa1-188 KRAS WT, HRAS WT, NRAS WT, or KRAS containing the containing the G12D, G13D or Q61H amino acid substitutions, or 4 nM KRAS; aa1-188 containing the G12V, G12C, G12A or G12S amino acid substitution, an N-terminal 6×His-tag and leader sequence), and 2 nM Europium-labeled anti-6×His antibody were mixed in assay buffer (10 mM HEPES pH7.3, 150 mM NaCl, 5 mM MgCl2, 0.05% BSA, 0.0025% NP-40 and 100 mM KF) with various concentrations of compound in a 384-well plate and a volume of 5 uL. After a 60-minute incubation at room temperature, 5 ul of 200 nM EDA-GTP-DY647P1 (diluted in assay buffer) was added to the plate. Following 30-minute incubation at room temperature, time-resolved fluorescence was measured on a PerkinElmer Envision plate reader. DMSO (0.3%) and unlabeled […] (1 μM) or equivalent tool compound were used to generate the Max and Min assay signals, respectively. Data was analysed using a four-parameter logistic model to calculate IC50 values, with at least two independent replicates were performed for each compound.

The next assay deals with T3, KRAS G12V (Homo sapiens, UniProt P01116, G12V).
T3 construct: 4 nM KRAS; aa1-188 containing the G12V, G12C, G12A or G12S amino acid substitution
Nature of the assay: HTRF nucleotide exchange assay (NEA), KRAS G12V. The protocol: as §1
A general note: TR-FRET usually uses a lanthanide donor and a delayed reading to cut background.

The next assay concerns the target T4, KRAS WT (Homo sapiens, UniProt P01116).
T4 construct: Recombinant human RAS protein (2 nM); aa1-188 KRAS WT
Briefly: HTRF nucleotide exchange assay (NEA), KRAS WT. The gist of the method: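 Recombinant human KRAS aa1-188 (N-terminal 6×His-tag), 2 nM for WT/G13D or 4 nM for G12C/G12S, with 2 nM Eu-anti-His antibody, preincubated with compound 60 min at RT in HEPES pH7.3 buffer; 200 nM EDA-GTP-DY647P1 then added, TR-FRET read after 30 min. IC50 by four-parameter fit.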

The next assay has as its target T5, KRAS G12C (Homo sapiens, UniProt P01116, G12C).
T5 construct: 4 nM KRAS; aa1-188 containing the G12V, G12C, G12A or G12S amino acid substitution
Nature of the assay: HTRF nucleotide exchange assay (NEA), KRAS G12C. The protocol: as §1

The next assay concerns the target T6, KRAS G12S (Homo sapiens, UniProt P01116, G12S).
T6 construct: 4 nM KRAS; aa1-188 containing the G12V, G12C, G12A or G12S amino acid substitution
Briefly: HTRF nucleotide exchange assay (NEA), KRAS G12S. Here is the method:
as §1

The target in the next assay is T7, KRAS G13D (Homo sapiens, UniProt P01116, G13D).
T7 construct: Recombinant human RAS protein (2 nM); aa1-188 KRAS WT
Nature of the assay: HTRF nucleotide exchange assay (NEA), KRAS G13D. To be noted: recombinant human KRAS G13D aa1-188, 2 nM; lowest class = % inhibition at 10 μM. Here is the method: as §1

T3 sequence (P01116 1-188 isoform P01116-2 G12V): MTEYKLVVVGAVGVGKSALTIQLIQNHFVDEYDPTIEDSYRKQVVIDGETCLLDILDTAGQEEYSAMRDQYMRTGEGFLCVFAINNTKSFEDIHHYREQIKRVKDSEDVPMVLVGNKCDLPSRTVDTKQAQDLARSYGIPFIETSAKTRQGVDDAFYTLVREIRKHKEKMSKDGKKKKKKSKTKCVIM
T2 sequence (P01116 1-188 isoform P01116-2 G12A): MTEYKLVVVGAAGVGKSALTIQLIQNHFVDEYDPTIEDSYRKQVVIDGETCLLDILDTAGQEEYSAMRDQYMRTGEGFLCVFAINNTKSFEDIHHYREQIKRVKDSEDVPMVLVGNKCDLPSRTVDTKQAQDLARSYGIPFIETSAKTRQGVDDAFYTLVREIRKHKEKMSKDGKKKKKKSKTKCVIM
T4 sequence (P01116 1-188 isoform P01116-2): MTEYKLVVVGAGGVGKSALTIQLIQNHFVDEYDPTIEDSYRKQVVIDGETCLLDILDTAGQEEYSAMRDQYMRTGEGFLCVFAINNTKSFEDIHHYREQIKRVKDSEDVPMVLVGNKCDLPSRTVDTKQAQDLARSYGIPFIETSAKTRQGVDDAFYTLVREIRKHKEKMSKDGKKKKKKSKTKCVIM
T5 sequence (P01116 1-188 isoform P01116-2 G12C): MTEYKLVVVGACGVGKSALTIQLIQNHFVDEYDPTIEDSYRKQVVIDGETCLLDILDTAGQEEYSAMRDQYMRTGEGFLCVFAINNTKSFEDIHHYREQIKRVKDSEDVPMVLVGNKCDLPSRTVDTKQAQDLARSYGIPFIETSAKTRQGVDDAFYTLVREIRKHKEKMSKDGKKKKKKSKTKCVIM
T6 sequence (P01116 1-188 isoform P01116-2 G12S): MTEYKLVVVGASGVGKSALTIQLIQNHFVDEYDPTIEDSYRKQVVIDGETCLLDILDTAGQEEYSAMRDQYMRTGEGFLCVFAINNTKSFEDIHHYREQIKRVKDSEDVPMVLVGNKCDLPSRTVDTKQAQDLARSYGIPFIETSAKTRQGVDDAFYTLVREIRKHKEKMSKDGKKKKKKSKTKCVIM
T1 sequence (P01116 1-188 isoform P01116-2 G12D): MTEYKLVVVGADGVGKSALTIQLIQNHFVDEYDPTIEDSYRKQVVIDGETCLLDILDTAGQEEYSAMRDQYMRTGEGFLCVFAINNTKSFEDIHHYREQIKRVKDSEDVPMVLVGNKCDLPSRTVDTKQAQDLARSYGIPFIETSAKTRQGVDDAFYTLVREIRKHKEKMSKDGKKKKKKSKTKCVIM
T7 sequence (P01116 1-188 isoform P01116-2 G13D): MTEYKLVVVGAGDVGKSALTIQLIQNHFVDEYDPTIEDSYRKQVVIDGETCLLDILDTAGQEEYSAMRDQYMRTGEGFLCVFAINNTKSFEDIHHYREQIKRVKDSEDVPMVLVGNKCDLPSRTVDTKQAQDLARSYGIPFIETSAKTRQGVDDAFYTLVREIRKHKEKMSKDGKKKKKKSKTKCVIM

As for `C#Cc1c(F)ccc2cc(O)cc(-c3ncc4c(N5CCCNC(=O)C5)nc(OC[C@@]56CCCN5C[C@H](F)C6)nc4c3F)c12` (relative stereo) [Example 88, 4-[7-(8-ethynyl-7-fluoro-3-hydroxy-1-naphthyl)-8-fluoro-2-[[trans-2-fluoro-1,2,3,5,6,7-hexahydropyrrolizin-8-yl]methoxy]pyrido [4,3-d]pyrimidin-4-yl]-1,4-diazepan-2-one], the IC50 at KRAS G12D, at KRAS G12A, at KRAS G12V, at KRAS WT, against KRAS G12C and against KRAS G12S was ≤ 0.01 µM in each case.
On to `CC1CN(c2nc(OCC34CCCN3CCC4)nc3c(F)c(-c4cc(O)cc5ccccc45)ncc23)CCCO1` (centres unmarked) [Example 16, 4-[8-fluoro-2-(1,2,3,5,6,7-hexahydropyrrolizin-8-ylmethoxy)-4-(2-methyl-1,4-oxazepan-4-yl)pyrido[4,3-d]pyrimidin-7-yl]naphthalen-2-ol], for which the IC50 at KRAS G12D is 0.01 to 0.1 µM; against KRAS G12A, 0.01 to 0.1 µM; at KRAS G12V, 0.01 to 0.1 µM; against KRAS WT, 0.01 to 0.1 µM; against KRAS G12C, 0.01 to 0.1 µM; on KRAS G12S it was 0.1 to 10 µM.
Take `Oc1cc(-c2ncc3c(N4CCCCCC4)nc(OCC45CCCN4CCC5)nc3c2F)c2ccccc2c1` [Example 17, 4-[4-(azepan-1-yl)-8-fluoro-2-(1,2,3,5,6,7-hexahydropyrrolizin-8-ylmethoxy)pyrido[4,3-d]pyrimidin-7-yl]naphthalen-2-ol]: the IC50 at KRAS G12D, against KRAS G12A, against KRAS G12V, against KRAS WT, against KRAS G12C and at KRAS G12S was 0.01 to 0.1 µM throughout.
As for `O=S1(=O)CCN(c2nc(OCC34CCCN3CCC4)nc3c(F)c(-c4cc(O)cc5ccccc45)ncc23)CC1` [Example 22, 4-[4-(1,1-dioxo-1,4-thiazinan-4-yl)-8-fluoro-2-(1,2,3,5,6,7-hexahydropyrrolizin-8-ylmethoxy)pyrido[4,3-d]pyrimidin-7-yl]naphthalen-2-ol], the half-maximal inhibitory concentration (IC50) is 0.1 to 10 µM at KRAS G12D; 0.1 to 10 µM on KRAS G12A; 0.1 to 10 µM on KRAS WT; > 10 µM at KRAS G13D; 0.1 to 10 µM against KRAS G12S.
For the molecule `Oc1cc(-c2ncc3c(N4CCC(O)CC4)nc(OCC45CCCN4CCC5)nc3c2F)c2ccccc2c1` [Example 41, 1-[8-fluoro-2-(1,2,3,5,6,7-hexahydropyrrolizin-8-ylmethoxy)-7-(3-hydroxy-1-naphthyl)pyrido[4,3-d]pyrimidin-4-yl]piperidin-4-ol], the IC50 on KRAS G12D was in the range of 0.01 to 0.1 µM; against KRAS G12A, 0.01 to 0.1 µM; on KRAS G12V, 0.01 to 0.1 µM; against KRAS WT it was 0.01 to 0.1 µM; on KRAS G12C, 0.01 to 0.1 µM; on KRAS G12S, 0.1 to 10 µM.
Regarding `COCC1(CNc2nc(OCC34CCCN3CCC4)nc3c(F)c(-c4cc(O)cc5ccccc45)ncc23)COC1` [Example 45, 4-[8-fluoro-2-(1,2,3,5,6,7-hexahydropyrrolizin-8-ylmethoxy)-4-[[3-(methoxymethyl)oxetan-3-yl]methylamino]pyrido [4,3-d]pyrimidin-7-yl]naphthalen-2-ol], the IC50 on KRAS G12D, against KRAS G12V, against KRAS WT, on KRAS G12C and at KRAS G12S was 0.1 to 10 µM each time.
For the molecule `CS(=O)(=O)CCCNc1nc(OCC23CCCN2CCC3)nc2c(F)c(-c3cc(O)cc4ccccc34)ncc12` [Example 46, 4-[8-fluoro-2-(1,2,3,5,6,7-hexahydropyrrolizin-8-ylmethoxy)-4-(3-methylsulfonylpropylamino)pyrido[4,3-d]pyrimidin-7-yl]naphthalen-2-ol], the IC50 at KRAS G12D, on KRAS WT and at KRAS G12S was 0.1 to 10 µM in each case.
Turning to `Oc1cc(-c2ncc3c(N4CC5CCC(C5)C4)nc(OCC45CCCN4CCC5)nc3c2F)c2ccccc2c1` [Example 47, 4-[4-(3-azabicyclo[3.2.1]octan-3-yl)-8-fluoro-2-(1,2,3,5,6,7-hexahydropyrrolizin-8-ylmethoxy)pyrido [4,3-d]pyrimidin-7-yl]naphthalen-2-ol], the IC50 on KRAS G12D was in the range of 0.1 to 10 µM; at KRAS G12A, 0.01 to 0.1 µM; against KRAS G12V, 0.01 to 0.1 µM; against KRAS WT, 0.01 to 0.1 µM; against KRAS G12C, 0.01 to 0.1 µM; against KRAS G12S, 0.1 to 10 µM.
As for `Oc1cc(-c2ncc3c(N4CCCC5(COC5)C4)nc(OCC45CCCN4CCC5)nc3c2F)c2ccccc2c1` [Example 52, 4-[8-fluoro-2-(1,2,3,5,6,7-hexahydropyrrolizin-8-ylmethoxy)-4-(2-oxa-8-azaspiro[3.5]nonan-8-yl)pyrido[4,3-d]pyrimidin-7-yl]naphthalen-2-ol], the IC50 on KRAS G12D lay within 0.01 to 0.1 µM; at KRAS G12A it was 0.01 to 0.1 µM; at KRAS G12V, 0.01 to 0.1 µM; against KRAS WT, 0.01 to 0.1 µM; against KRAS G12C it was 0.01 to 0.1 µM; against KRAS G12S, 0.1 to 10 µM.
With `O=S1(=O)CCN(c2nc(OCC34CCCN3CCC4)nc3c(F)c(-c4cc(O)cc5ccccc45)ncc23)CCN1` [Example 59, 4-[4-(1,1-dioxo-1,2,5-thiadiazepan-5-yl)-8-fluoro-2-(1,2,3,5,6,7-hexahydropyrrolizin-8-ylmethoxy)pyrido [4,3-d]pyrimidin-7-yl]naphthalen-2-ol], the IC50 at KRAS G12D, against KRAS G12A, against KRAS G12V, against KRAS WT, against KRAS G12C and at KRAS G12S was 0.1 to 10 µM each time.
Consider `N#CC1CCN(c2nc(OCC34CCCN3CCC4)nc3c(F)c(-c4cc(O)cc5ccccc45)ncc23)CC1` [Example 65, 1-[8-fluoro-2-(1,2,3,5,6,7-hexahydropyrrolizin-8-ylmethoxy)-7-(3-hydroxy-1-naphthyl)pyrido[4,3-d]pyrimidin-4-yl]piperidine-4-carbonitrile], for which the IC50 at KRAS G12D is 0.1 to 10 µM; against KRAS G12A it was 0.01 to 0.1 µM; on KRAS G12V it was 0.01 to 0.1 µM; at KRAS WT, 0.1 to 10 µM; against KRAS G12C, 0.01 to 0.1 µM; on KRAS G12S, 0.1 to 10 µM.
`Oc1cc(-c2ncc3c(N4CCCC(O)CC4)nc(OCC45CCCN4CCC5)nc3c2F)c2ccccc2c1` (centres unmarked) [Example 70, 1-[8-fluoro-2-(1,2,3,5,6,7-hexahydropyrrolizin-8-ylmethoxy)-7-(3-hydroxy-1-naphthyl)pyrido[4,3-d]pyrimidin-4-yl]azepan-4-ol]: the IC50 at KRAS G12D was ≤ 0.01 µM; against KRAS G12A, 0.01 to 0.1 µM; against KRAS G12V, 0.01 to 0.1 µM; against KRAS WT, 0.01 to 0.1 µM; on KRAS G12C, 0.01 to 0.1 µM; against KRAS G12S, 0.1 to 10 µM.
On to `[O-][S+]1CCCN(c2nc(OCC34CCCN3CCC4)nc3c(F)c(-c4cc(O)cc5ccccc45)ncc23)CC1` (centres unmarked) [Example 90, 4-[8-fluoro-2-(1,2,3,5,6,7-hexahydropyrrolizin-8-ylmethoxy)-4-(1-oxo-1,4-thiazepan-4-yl)pyrido[4,3-d]pyrimidin-7-yl]naphthalen-2-ol], for which the IC50 on KRAS G12D was ≤ 0.01 µM; on KRAS G12A, 0.01 to 0.1 µM; against KRAS G12V, 0.01 to 0.1 µM; against KRAS WT it was 0.01 to 0.1 µM; on KRAS G12C, 0.01 to 0.1 µM; against KRAS G12S, 0.1 to 10 µM.
Take `CN(C)CC1(COc2nc(N3CCCOCC3)c3cnc(-c4cc(O)cc5ccccc45)c(F)c3n2)CC1` [Example 96, 4-[2-[[1-[(dimethylamino)methyl]cyclopropyl]methoxy]-8-fluoro-4-(1,4-oxazepan-4-yl)pyrido[4,3-d]pyrimidin-7-yl]naphthalen-2-ol]: the IC50 on KRAS G12D, against KRAS G12V, against KRAS WT and on KRAS G12C was 0.01 to 0.1 µM each time.

A word on the IC50: it is the concentration that gives 50% inhibition.
